Measured values taken from patent US20020115704A1, “Treatment method” (priority 2000, published 2002).

Legend:
[1] = tested on: 5-HT1A receptors or 5-HT1D receptors; conditions: cited from earlier work
female Macaca arctoides = assay: Sexual behaviour of the male with the drug-treated female Macaca arctoides; format: in vivo; conditions: for Sexual desire and arousal in female primates: conclusion from the male's behaviour with the treated female; for Copulations with ejaculation (FIG. 1A) / Copulations without ejaculation (FIG. 1B) / Total number of copulations, with and without ejaculation pooled (FIG. 1C) / Number of short time mounts (FIG. 1D): i.m. to the female, n=4, vs saline; for Copulations with ejaculation (FIG. 1A) / Copulations without ejaculation (FIG. 1B): atipamezole 0.03 and 0.3 mg/kg, apomorphine 0.125 and 0.25 mg/kg, or combinations, 20 min observation; for Total number of copulations, with and without ejaculation pooled (FIG. 1C) / Number of short time mounts (FIG. 1D): same doses; for Total number of copulations, with and without ejaculation pooled (FIG. 1C): atipamezole F2,11=5.00, p=0.05; for Number of short time mounts (FIG. 1D): atipamezole F2,11=7.55, p<0.03
Description: This example investigated whether the administration a specific alpha2-adrenoceptor antagonist, atipamezole, a dopamine agonist, apomorphine, or their combination into a female Macaca arctoides produces changes in the sexual behaviour of the female with a male.
The experiments were performed using four female and two male Macaca arctoides monkeys born in captivity. The ages of the adult females were 13 and 16 years and those of the aged females 23 and 25 years. The ages of the males were 14 and 23 years. The females were sexually mature and with normal hormonal cycles.
During the testing period, the monkeys were housed individually in stainless-steel cages. They were fed commercially available food twice each day, and water was always available. Females were weighed before the first injection of each series and doses were adjusted accordingly when appropriate. Sexual behaviour was tested between 11.00 and 16.00 h. The same test cage and testing procedure were used in all experiments. One experienced observer, blind to the treatment, viewed the animals at a distance of about 0.5 m from the cage.
During the testing period, the couple being tested was housed in a single case (0.6×0.9×1.2 m) with two compartments. During the first 10 min of each session, a sliding wall made of steel bars separated the male and the female in the test cage. The monkeys could see and touch each other through this wall. Between the testing sessions, the female being tested was housed in another room with no visual contact with the male.
After i.m. administration of the studied compounds to the female, the observation of the sexual behaviour began as described subsequently. Ten minutes after the end of drug administration, the sliding wall between the male and the female was pulled away and the observation of sexual activity continued for the next 20 min. At the end of the observation period, the sliding wall was replaced and the female was taken to her home cage in another room.
The occurrence and duration of the following parameters were observed: perineal investigation, mounting, masturbation, ejaculation, male and female grooming, eye contact, tying, yawning, self-scratching, direct male aggression towards the female and teeth grinding. A single mount leading to ejaculation was counted as ejaculation. A single mount not leading to ejaculation was counted as a short term mount. If the interval between mounts was >30 s, the mount was considered to be separate. In Macaca arctoides, male ejaculation reached in copulation or masturbation can be recognised clearly on the basis of its stereotypic manifestations as described in Linnankoski et al. (Arch. Sexual Behav. 10:207-222, 1981).
The experiments were performed once every other day for three days/week. In each female, the effect of atipamezole (Orion Pharma, Turku, Finland) alone (0.03 and 0.3 mg/kg and saline control) was tested during the first two weeks. The effect of apomorphine (Sigma, St.Louis, Mo.) alone (0.125 and 0.25 mg/kg and saline control) was tested during the next two weeks. The combination of a low dose of atipamezole (0.03 mg/kg) with a low dose apomorphine (0.125 mg/kg), a high dose of atipamezole (0.3 mg/kg) with a high dose of apomorphine (0.25 mg/kg), or saline control (two saline injections) was studied during the last two weeks. Owing to the difference in their pharmacokinetic properties, atipamezole (or its saline control) was always administered 10 min before testing session and apomorphine (or its saline control) 20 min before the testing session. The order of testing various doses of drugs and saline control was randomised within each two week testing period. Each dose or the combination was tested twice and the average result of these two sessions was used in final calculations. The experiments were performed in a double-blind fashion.

males [2] = conditions: apomorphine: human males; cited from earlier work
[3] = tested on: ovariectomised, oestrogen+progesterone-primed female rats; conditions: cited from earlier work
α2-adrenoceptor = conditions: cited from earlier work
[4] = tested on: dopaminergic, GABAergic, serotonergic (such as 5-HT1A) receptors; conditions: cited from earlier work
males [5] = conditions: cited from earlier work
menopausal women = conditions: oral; cited from earlier work
postmenopausal women = conditions: cited from earlier work

For `COc1ccccc1N1CCN(CCN2C(=O)c3ccccc3C(C)(C)C2=O)CC1` [ARC 239], which “Affinity on 5-HT1A receptors or 5-HT1D receptors” value [1] is on record?
Its value is “have affinity”.

Which “Affinity on 5-HT1A receptors or 5-HT1D receptors” value [1] does the source give for `CC1c2ccccc2CN1CC1=NCCN1` (centres unmarked) [BRL 44408] here?
The value was “have affinity”.

Which “Affinity on 5-HT1A receptors or 5-HT1D receptors” value [1] does the source give for `c1ccc2c(c1)OCC(C1=NCCN1)O2` (centres unmarked) [Idazoxan] here?
The value was “have affinity”.

With `COC1(C2=NCCN2)COc2ccccc2O1` (centres unmarked) [RX821002, 2-methoxy idazoxan] as the compound, how does the “Affinity on 5-HT1A receptors or 5-HT1D receptors” value [1] read?
Its value is “have affinity”.

With `CN1CCc2cccc3c2[C@H]1Cc1ccc(O)c(O)c1-3` [apomorphine] as the compound, how does the “Sexual desire and arousal in female primates” value (female Macaca arctoides) read?
Its value is “ineffective”.

What about the “Copulations with ejaculation (FIG. 1A)” value (female Macaca arctoides) of the same compound?
Its value is “failed to be statistically significant”.

And the “Copulations without ejaculation (FIG. 1B)” value (female Macaca arctoides)?
The value was “failed to be statistically significant”.

And the “Total number of copulations, with and without ejaculation pooled (FIG. 1C)” value (female Macaca arctoides)?
The value was “not significant”.

What about the “Number of short time mounts (FIG. 1D)” value (female Macaca arctoides) of the same compound?
Its value is “no significant effect”.

And the “Sexual arousal i.e. erections” value (males [2])?
Its value is “increased”.

What about the “Sexual behaviour, lordosis response” value [3] of the same compound?
The value was “facilitate”.

Which “Sexual desire and arousal in female primates” value (female Macaca arctoides) does the source give for `CCC1(c2c[nH]cn2)Cc2ccccc2C1` [atipamezole, 4-(2-ethyl-2,3-dihydro-1H-inden-2-yl)-1H-imidazole] here?
Its value is “increases”.

And the “Copulations with ejaculation (FIG. 1A)” value (female Macaca arctoides)?
Its value is “failed to be statistically significant”.

What about the “Copulations without ejaculation (FIG. 1B)” value (female Macaca arctoides) of the same compound?
Its value is “failed to be statistically significant”.

What about the “Total number of copulations, with and without ejaculation pooled (FIG. 1C)” value (female Macaca arctoides) of the same compound?
The value was “significant increase”.

And the “Number of short time mounts (FIG. 1D)” value (female Macaca arctoides)?
The value was “dose-dependent increase”.

And the α2-/α1-adrenoceptor selectivity ratio (α2-adrenoceptor)?
Its α2-/α1-adrenoceptor selectivity ratio is “high”.

What about the “Affinity for other neurotransmitter receptors (dopaminergic, GABAergic, serotonergic, benzodiazepine)” value [4] of the same compound?
The value was “negligible affinity”.

And the “Sexual activity (ejaculations produced by copulation and/or masturbation)” value (males [5])?
The value was “increase”.

Which “Affinity on 5-HT1A receptors or 5-HT1D receptors” value [1] does the source give for `COc1ccc2c(c1)CCN1C[C@H]3CCCN(S(C)(=O)=O)[C@H]3C[C@@H]21` [deleguamine, delequamine] here?
The value was “have affinity”.

And the “Sexual behaviour, lordosis response” value [3]?
The value was “facilitate”.

With `Cc1ccc(N(CC2=NCCN2)c2cccc(O)c2)cc1` [phentolamine] as the compound, how does the “Sexual arousal, such as self-reported lubrication” value (menopausal women) read?
The value was “mild improvement”.

What about the “Sexual arousal i.e. erections” value (males [2]) of the same compound?
Its value is “increase”.

For `CCCc1nn(C)c2c(=O)[nH]c(-c3cc(S(=O)(=O)N4CCN(C)CC4)ccc3OCC)nc12` [sildenafil], which Sexual function (postmenopausal women) is on record?
Its Sexual function is “did not improve the sexual function significantly”.

What about the “Sexual arousal i.e. erections” value (males [2]) of the same compound?
Its value is “increase”.

For `COC(=O)[C@@H]1[C@H]2C[C@H]3c4[nH]c5ccccc5c4CCN3C[C@@H]2CC[C@@H]1O` [yohimbine], which “Affinity for other neurotransmitter receptors (dopaminergic, GABAergic, serotonergic, benzodiazepine)” value [4] is on record?
The value was “has affinity”.
